Tests used:
[1] = biological target: T1, Tumor necrosis factor (Homo sapiens, UniProt P01375); assay: Binding affinity to human GST-tagged TNF extracellular domain expressed in Escherichia coli BL21(DE3)pLysS cells by fluorescence spectrophotometric analysis
[2] = biological target: T1, Tumor necrosis factor; assay: Inhibition of human TNF assessed as reduction in TNF-induced cell death of actinomycin D activated mouse L929 cells preincubated for 30 mins followed by cell addition measured after 18 to 24 hrs by crystal violet staining based spectrophotometric analysis
[3] = biological target: T1, Tumor necrosis factor; assay: Binding affinity to recombinant human TNF assessed as inhibition of TNF-TNFR1 interaction incubated for 1 hr by ELISA

T1 sequence (P01375 whole entry, the tested form may be a part): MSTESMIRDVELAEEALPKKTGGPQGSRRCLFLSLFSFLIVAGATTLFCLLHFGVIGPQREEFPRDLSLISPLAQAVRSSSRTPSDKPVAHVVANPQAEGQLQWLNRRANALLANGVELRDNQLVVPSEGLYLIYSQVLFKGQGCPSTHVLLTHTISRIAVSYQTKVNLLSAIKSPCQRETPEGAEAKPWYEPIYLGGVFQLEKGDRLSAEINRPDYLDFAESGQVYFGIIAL

| Structure (SMILES) | Kd [1] | IC50 [2] | Kd ([1]; read-out: Kd) | IC50 [3] |
| --- | --- | --- | --- | --- |
| O=C(c1coc2ccccc2c1=O)N1CCN(Cc2cn(-c3cccc(C(F)(F)F)c3)c3ccc([N+](=O)[O-])cc23)CC1 | Not Active | Not Active |  |  |
| O=C(c1coc2ccccc2c1=O)N1CCN(C(=O)c2cn(-c3cccc(C(F)(F)F)c3)c3ccc([N+](=O)[O-])cc23)CC1 | Not Active | Not Active |  |  |
| O=C(c1ccccc1)N1CCN(C(=O)c2cn(-c3cccc(C(F)(F)F)c3)c3ccccc23)CC1 |  | Not Active | 15.2 µM |  |
| Cc1ccc2occ(CN(C)CCN(C)Cc3cn(-c4cccc(C(F)(F)F)c4)c4ccccc34)c(=O)c2c1 |  |  | 18.6 µM | 10 µM |
| CN(CCN(C)C(=O)c1cn(S(=O)(=O)c2cccc(N)c2)c2ccccc12)C(=O)c1coc2ccccc2c1=O |  |  | 0.95 µM | 20 µM |
| O=C(c1coc2ccccc2c1=O)N1CCN(C(=O)c2cn(-c3cccc([N+](=O)[O-])c3)c3ccc([N+](=O)[O-])cc23)CC1 |  |  | 0.74 µM | 20 µM |
| O=C(NCCCNC(=O)c1cn(S(=O)(=O)c2ccccc2)c2ccccc12)c1ccccc1 | Not Active | Not Active |  |  |
| O=C(NCCCCNC(=O)c1cn(S(=O)(=O)c2ccccc2)c2ccccc12)c1ccc2ccccc2c1 |  | Not Active | 18.7 µM |  |
| Nc1cccc(S(=O)(=O)n2cc(C(=O)N3CCN(C(=O)c4coc5ccccc5c4=O)CC3)c3ccccc32)c1 |  |  | 5.45 µM | 40 µM |
| O=C(c1ccccc1F)N1CCN(C(=O)c2c[nH]c3ccc([N+](=O)[O-])cc23)CC1 |  | Not Active | 17.9 µM |  |
| CN(CCN(C)C(=O)c1cn(-c2cccc(N)c2)c2ccccc12)C(=O)c1coc2ccccc2c1=O |  | Not Active | 35.2 µM |  |
| O=C(NCCCNC(=O)c1cn(S(=O)(=O)c2ccccc2)c2ccccc12)c1coc2ccccc2c1=O |  |  | 5.2 µM | 40 µM |
| CN(CCN(C)C(=O)c1cn(S(=O)(=O)c2ccccc2)c2ccccc12)C(=O)c1ccccc1 |  | Not Active | 17.3 µM |  |
| CN(CCN(C)C(=O)c1cn(S(=O)(=O)c2ccccc2)c2ccccc12)C(=O)c1ccccc1F | Not Active | Not Active |  |  |
| O=C(c1coc2ccccc2c1=O)N1CCN(C(=O)c2cn(S(=O)(=O)c3ccccc3)c3ccccc23)CC1 |  |  | 12.8 µM | 40 µM |
| CN(CCN(C)C(=O)c1cn(-c2cccc(C(F)(F)F)c2)c2ccc([N+](=O)[O-])cc12)C(=O)c1ccccc1F |  | Not Active | 10.3 µM |  |
| O=C(c1ccc2ccccc2c1)N1CCN(C(=O)c2cn(-c3cccc(C(F)(F)F)c3)c3ccccc23)CC1 | Not Active | Not Active |  |  |
| CN(CCN(C)C(=O)n1ccnc1)C(=O)c1cn(S(=O)(=O)c2ccccc2)c2ccccc12 | Not Active | Not Active |  |  |
| O=C(c1ccc2ccccc2c1)N1CCN(C(=O)c2cn(S(=O)(=O)c3ccccc3)c3ccccc23)CC1 | Not Active | Not Active |  |  |
| Nc1cccc(-n2cc(C(=O)N3CCN(C(=O)c4coc5ccccc5c4=O)CC3)c3ccccc32)c1 |  |  | 14.1 µM | 20 µM |
| Nc1cccc(-n2cc(C(=O)N3CCN(C(=O)C4COc5ccccc5C4=O)CC3)c3cc(N)ccc32)c1 (configuration not stated) | Not Active | Not Active |  |  |

| Structure (SMILES) | Kd [1] | IC50 [2] | Kd ([1]; read-out: Kd) | IC50 [3] |
| --- | --- | --- | --- | --- |
| O=C(c1coc2ccccc2c1=O)N1CCN(C(=O)c2cn(-c3cccc([N+](=O)[O-])c3)c3ccccc23)CC1 |  | Not Active | 25.4 µM |  |
| O=C(c1ccccc1)N1CCN(Cc2cn(-c3cccc(C(F)(F)F)c3)c3ccccc23)CC1 |  |  | 2.14 µM | 20 µM |
| Cc1ccc2occ(CN3CCN(Cc4cn(-c5cccc(C(F)(F)F)c5)c5ccccc45)CC3)c(=O)c2c1 |  |  | 4.78 µM | 15 µM |
| CN(CCN(C)C(=O)c1cn(S(=O)(=O)c2cccc([N+](=O)[O-])c2)c2ccccc12)C(=O)c1coc2ccccc2c1=O |  |  | 3.16 µM | 40 µM |
| Nc1cccc(-n2cc(C(=O)N3CCN(C(=O)c4coc5ccccc5c4=O)CC3)c3cc(N)ccc32)c1 |  |  | 15.6 µM | 40 µM |
| CN(CCN(C)C(=O)c1cn(S(=O)(=O)c2ccccc2)c2ccccc12)C(=O)c1ccc2ccccc2c1 |  | Not Active | 25 µM |  |
| O=C(c1ccc2ccccc2c1)N1CCN(Cc2cn(-c3cccc(C(F)(F)F)c3)c3ccc([N+](=O)[O-])cc23)CC1 | Not Active | Not Active |  |  |
| O=C(c1cn(-c2cccc(C(F)(F)F)c2)c2ccccc12)N1CCN(C(=O)n2ccnc2)CC1 |  | Not Active | > 35 µM |  |
| CN(CCN(C)C(=O)c1cn(S(=O)(=O)c2ccccc2)c2ccccc12)C(=O)c1coc2ccccc2c1=O |  |  | 7 µM | > 60 µM |
| Cc1cc2occ(CN3CCN(Cc4cn(-c5cccc(C(F)(F)F)c5)c5ccccc45)CC3)c(=O)c2cc1C |  |  | 10.1 µM | 15 µM |
| Cc1cc2occ(C(=O)N3CCN(C(=O)c4cn(-c5cccc(C(F)(F)F)c5)c5ccccc45)CC3)c(=O)c2cc1C |  | Not Active | 5.12 µM |  |
| CN(CCN(C)C(=O)c1cn(S(=O)(=O)c2ccccc2)c2ccccc12)C(=O)c1cccs1 |  | Not Active | 8.22 µM |  |
| O=C(c1coc2ccccc2c1=O)N1CCN(Cc2cn(-c3cccc(C(F)(F)F)c3)c3ccccc23)CC1 |  |  | 1.61 µM | 20 µM |
| O=C(NCCNC(=O)c1cn(S(=O)(=O)c2ccccc2)c2ccccc12)c1ccc2ccccc2c1 |  | Not Active | > 35 µM |  |
| O=C(c1ccc2ccccc2c1)N1CCN(Cc2cn(-c3cccc(C(F)(F)F)c3)c3ccccc23)CC1 |  |  | 7.82 µM | 40 µM |
| O=C(c1coc2ccccc2c1=O)N1CCN(C(=O)c2cn(S(=O)(=O)c3cccc([N+](=O)[O-])c3)c3ccccc23)CC1 |  |  | 16.8 µM | 40 µM |
| O=C(c1cccs1)N1CCN(C(=O)c2c[nH]c3ccc([N+](=O)[O-])cc23)CC1 |  | Not Active | 10.7 µM |  |
| Cc1cc2occ(C(=O)N(C)CCN(C)C(=O)c3cn(-c4cccc(C(F)(F)F)c4)c4ccccc34)c(=O)c2cc1C |  |  | 2.51 µM | > 60 µM |
| CN(CCN(C)C(=O)c1cn(-c2cccc(C(F)(F)F)c2)c2ccc([N+](=O)[O-])cc12)C(=O)c1coc2ccccc2c1=O |  | Not Active | 13.3 µM |  |
| CN(CCN(C)C(=O)c1cn(-c2cccc([N+](=O)[O-])c2)c2ccccc12)C(=O)c1coc2ccccc2c1=O |  | Not Active | 12.2 µM |  |
